The values that follow are results of earlier work, collected in US20190374533A1, “COMPOUNDS AND METHODS FOR INHIBITING NHE-MEDIATED ANTIPORT IN THE TREATMENT OF DISORDERS ASSOCIATED WITH FLUID RETENTION OR SALT OVERLOAD AND GASTROINTESTINAL TRACT DISORDERS” (Ardelyx, Inc., priority 2008, published 2019).

The target in one series is NHE-1 (Rattus norvegicus, UniProt P26431). The following applies: * = from rat; read-out: IC50 or Ki, NHE-1; cited from earlier work.
For a further series, the target named is NHE-3 (Rattus norvegicus, UniProt P26433). The settings on record: * = from rat; read-out: IC50 or Ki, NHE-3; cited from earlier work.
Sequence of NHE-3 (P26433 29-831): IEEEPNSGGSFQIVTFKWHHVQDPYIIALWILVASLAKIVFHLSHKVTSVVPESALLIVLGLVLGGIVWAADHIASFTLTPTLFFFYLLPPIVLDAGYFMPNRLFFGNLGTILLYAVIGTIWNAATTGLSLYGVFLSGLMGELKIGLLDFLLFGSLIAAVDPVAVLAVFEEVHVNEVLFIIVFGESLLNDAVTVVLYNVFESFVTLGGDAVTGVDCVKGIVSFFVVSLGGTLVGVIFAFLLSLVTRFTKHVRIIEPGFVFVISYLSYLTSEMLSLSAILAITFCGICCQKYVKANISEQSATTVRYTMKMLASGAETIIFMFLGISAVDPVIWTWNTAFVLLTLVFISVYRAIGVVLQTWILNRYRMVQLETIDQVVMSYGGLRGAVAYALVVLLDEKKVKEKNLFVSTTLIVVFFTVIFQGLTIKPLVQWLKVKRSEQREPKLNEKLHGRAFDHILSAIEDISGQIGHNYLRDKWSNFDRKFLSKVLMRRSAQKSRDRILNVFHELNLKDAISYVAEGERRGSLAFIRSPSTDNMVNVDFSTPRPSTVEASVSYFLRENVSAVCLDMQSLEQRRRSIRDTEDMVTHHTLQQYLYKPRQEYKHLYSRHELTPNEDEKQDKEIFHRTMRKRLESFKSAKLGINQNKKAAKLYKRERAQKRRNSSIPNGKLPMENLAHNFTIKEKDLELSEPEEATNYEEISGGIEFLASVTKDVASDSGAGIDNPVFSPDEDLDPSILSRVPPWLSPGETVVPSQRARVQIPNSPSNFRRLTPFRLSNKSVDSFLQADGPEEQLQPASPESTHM
For a further series, the target named is T1, NHE-5 (Homo sapiens, UniProt Q14940).
T1 sequence (Q14940 1-896): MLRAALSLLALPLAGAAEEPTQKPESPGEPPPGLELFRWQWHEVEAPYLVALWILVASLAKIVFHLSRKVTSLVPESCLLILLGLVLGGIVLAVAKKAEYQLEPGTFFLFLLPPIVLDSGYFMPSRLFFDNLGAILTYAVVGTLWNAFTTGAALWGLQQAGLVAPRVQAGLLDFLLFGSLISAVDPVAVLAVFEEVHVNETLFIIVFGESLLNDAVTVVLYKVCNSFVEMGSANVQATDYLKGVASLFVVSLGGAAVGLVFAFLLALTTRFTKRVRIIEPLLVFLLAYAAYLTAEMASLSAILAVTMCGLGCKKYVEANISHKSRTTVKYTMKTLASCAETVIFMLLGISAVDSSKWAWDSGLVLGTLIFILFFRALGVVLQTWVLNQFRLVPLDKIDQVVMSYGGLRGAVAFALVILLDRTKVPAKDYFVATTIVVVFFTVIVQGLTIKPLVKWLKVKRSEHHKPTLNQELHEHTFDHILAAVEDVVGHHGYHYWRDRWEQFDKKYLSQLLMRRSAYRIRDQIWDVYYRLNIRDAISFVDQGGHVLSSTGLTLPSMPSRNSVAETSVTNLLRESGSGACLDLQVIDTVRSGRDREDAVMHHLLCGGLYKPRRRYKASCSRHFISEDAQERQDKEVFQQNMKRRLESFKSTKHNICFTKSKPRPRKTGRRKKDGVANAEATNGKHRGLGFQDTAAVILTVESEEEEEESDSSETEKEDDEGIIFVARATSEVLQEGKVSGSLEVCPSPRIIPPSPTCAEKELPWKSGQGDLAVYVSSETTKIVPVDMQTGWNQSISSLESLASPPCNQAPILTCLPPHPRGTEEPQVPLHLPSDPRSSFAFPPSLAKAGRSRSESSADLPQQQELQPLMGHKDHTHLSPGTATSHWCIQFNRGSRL
The following applies: read-out: IC50 or Ki, NHE-5; cited from earlier work.

The target in another series is T2, NHE-2 (Rattus norvegicus, UniProt P48763).
T2 sequence (P48763 1-813): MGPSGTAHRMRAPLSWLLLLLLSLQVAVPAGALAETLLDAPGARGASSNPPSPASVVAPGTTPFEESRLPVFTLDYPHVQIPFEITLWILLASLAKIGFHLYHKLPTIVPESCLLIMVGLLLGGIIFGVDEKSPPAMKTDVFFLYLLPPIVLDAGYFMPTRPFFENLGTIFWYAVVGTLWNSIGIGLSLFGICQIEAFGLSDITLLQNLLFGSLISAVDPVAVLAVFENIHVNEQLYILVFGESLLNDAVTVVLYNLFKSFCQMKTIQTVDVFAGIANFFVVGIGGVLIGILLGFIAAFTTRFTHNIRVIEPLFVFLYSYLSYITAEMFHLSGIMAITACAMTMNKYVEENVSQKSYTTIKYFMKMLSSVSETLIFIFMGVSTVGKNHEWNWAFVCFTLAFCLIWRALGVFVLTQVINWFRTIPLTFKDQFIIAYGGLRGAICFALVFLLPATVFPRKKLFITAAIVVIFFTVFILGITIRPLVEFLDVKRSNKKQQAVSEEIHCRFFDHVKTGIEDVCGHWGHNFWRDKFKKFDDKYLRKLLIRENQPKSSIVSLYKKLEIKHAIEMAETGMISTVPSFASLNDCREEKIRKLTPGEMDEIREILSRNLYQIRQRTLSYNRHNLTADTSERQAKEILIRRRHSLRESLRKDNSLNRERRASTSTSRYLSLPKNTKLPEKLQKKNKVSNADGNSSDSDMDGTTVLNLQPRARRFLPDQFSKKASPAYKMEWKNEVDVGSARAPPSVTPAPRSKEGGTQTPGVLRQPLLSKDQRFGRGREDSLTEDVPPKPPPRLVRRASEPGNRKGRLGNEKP
The following applies: * = from rat; read-out: IC50 or Ki, NHE-2; cited from earlier work.

Sequence of NHE-1 (P26431 whole entry): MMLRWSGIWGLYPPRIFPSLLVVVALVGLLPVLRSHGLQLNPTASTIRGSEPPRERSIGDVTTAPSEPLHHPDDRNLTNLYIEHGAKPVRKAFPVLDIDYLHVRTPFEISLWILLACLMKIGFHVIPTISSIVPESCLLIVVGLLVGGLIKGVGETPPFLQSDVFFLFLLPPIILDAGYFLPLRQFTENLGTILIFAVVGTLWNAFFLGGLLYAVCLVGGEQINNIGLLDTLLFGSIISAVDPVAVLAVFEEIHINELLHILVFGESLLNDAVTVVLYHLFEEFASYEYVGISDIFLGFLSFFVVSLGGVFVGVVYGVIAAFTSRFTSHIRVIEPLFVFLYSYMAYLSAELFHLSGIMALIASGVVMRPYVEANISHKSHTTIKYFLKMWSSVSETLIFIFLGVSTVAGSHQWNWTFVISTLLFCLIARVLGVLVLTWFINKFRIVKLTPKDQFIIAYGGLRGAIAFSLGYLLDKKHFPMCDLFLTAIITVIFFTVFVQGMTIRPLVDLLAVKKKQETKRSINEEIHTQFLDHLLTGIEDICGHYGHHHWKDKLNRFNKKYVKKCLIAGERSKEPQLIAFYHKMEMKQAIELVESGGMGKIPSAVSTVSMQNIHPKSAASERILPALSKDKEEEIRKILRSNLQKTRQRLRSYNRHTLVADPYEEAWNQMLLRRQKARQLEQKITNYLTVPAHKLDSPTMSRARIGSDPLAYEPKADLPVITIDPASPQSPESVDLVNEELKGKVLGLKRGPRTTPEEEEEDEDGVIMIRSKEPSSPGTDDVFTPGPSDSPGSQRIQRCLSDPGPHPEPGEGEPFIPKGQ

On to `N=C(N)NC(=O)c1nc(Cl)c(N2CCCCCC2)nc1N` [HMA], for which the half-inhibitory concentration (IC50) (commonly the concentration at which inhibition is half-maximal) on NHE-1 is 13 nM; at NHE-3 it was 2400 nM; at NHE-5, 370 nM.

For the compound `CCN(c1nc(N)c(C(=O)NC(=N)N)nc1Cl)C(C)C` [EIPA, ethyl isopropyl amiloride], at NHE-2, the IC50 was 80 nM.
